These results are taken from ChEMBL document CHEMBL1268929, “Design, synthesis, and evaluation of an α-tocopherol analogue as a mitochondrial antioxidant” (2010).

One experiment relates to CCRF-CEM. As to the kind of experiment: Antioxidant activity against diethyl maleate-induced intracellular ROS accumulation in human CEM cells at 5 uM pretreated for 1 hr before diethyl maleate challenge measured after 30 mins by flow cytometry. Type of experiment: functional. (In general: In flow cytometry, cells or beads pass a laser one at a time.)
For another experiment, the species on record is Bos taurus. Briefly: Antioxidant activity against AAPH-induced lipid peroxidation in bovine heart mitochondrial membrane at 50 uM by spectrofluorimetric analysis. Type of experiment: functional. Particulars: Mitochondria.

SMILES strings stand for the structures. The source made the active and inactive calls. The rule behind the calls is not given here.

On to `Cc1nc2c(c(C)c1O)CCN2C`, for which the Activity in the experiment with CCRF-CEM is on record as 75%.

On to `Cc1nc2c(c(CC[C@](C)(O)CCC[C@H](C)CCC[C@H](C)CCCC(C)C)c1O)CCN2C`, for which, in the experiment on CCRF-CEM, the Activity was found to be 2%. The result in the experiment filed under Bos taurus was Active.

On to `Cc1c(C)c2c(c(C)c1O)CC[C@@](C)(CCC[C@H](C)CCC[C@H](C)CCCC(C)C)O2` [ALPHA-TOCOPHEROL], for which the Activity in the experiment on CCRF-CEM was found to be 65%.
